The supplement of paper PMC10307832

Key:
Assay in all cases: relative viability (nuclei count vs DMSO), 5 days (fraction); higher = more cells survive
QS11 + Vorinostat = compound: C1CC2=C(C1)C=C(C=C2)OC3=NC(=C4C(=N3)N(C=N4)CC5=CC=C(C=C5)C6=CC=CC=C6)N[C@@H](CC7=CC=CC=C7)CO [QS11] + O=C(CCCCCCC(=O)Nc1ccccc1)NO [Vorinostat] (partner 1 µM)
Procedure, shortened: (§1)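 Relative viability equals treated-well nuclei counts divided by vehicle-well nuclei counts. Counts came from 4× images of lung cancer cell lines grown in 1536-well plates for 5 days after pin-tool dosing on the day after seeding. Dosing used one drug alone or a fixed anchor-drug dose plus five library-drug doses (not always all listed) in √10 steps, and values are medians of duplicate plates.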

Darinaparsin + OSI-027 = compound: C[As](C)SC[C@H](NC(=O)CC[C@H](N)C(=O)O)C(=O)NCC(=O)O [Darinaparsin] + COc1cccc2cc(-c3nc([C@H]4CC[C@H](C(=O)O)CC4)n4ncnc(N)c34)[nH]c12 [OSI-027] (partner 0.5 µM)
Procedure, shortened: as §1

[1] = compound: C[As](C)SC[C@H](NC(=O)CC[C@H](N)C(=O)O)C(=O)NCC(=O)O [Darinaparsin] + C[C@@H](Oc1cc(-c2cnn(C3CCNCC3)c2)cnc1N)c1c(Cl)ccc(F)c1Cl [Crizotinib] (partner 1 µM)
Procedure, shortened: as §1

| Cell Line | relative viability (QS11 + Vorinostat; first compound 0.08 µM) | relative viability (QS11 + Vorinostat; first compound 0.253 µM) | relative viability (QS11 + Vorinostat; first compound 0.8 µM) | relative viability (QS11 + Vorinostat; first compound 2.53 µM) | relative viability (QS11 + Vorinostat; first compound 8 µM) | relative viability (Darinaparsin + OSI-027; first compound 0.08 µM) | relative viability (Darinaparsin + OSI-027; first compound 0.8 µM) | relative viability (Darinaparsin + OSI-027; first compound 8 µM) | relative viability ([1]; first compound 0.08 µM) | relative viability ([1]; first compound 0.8 µM) | relative viability ([1]; first compound 2.53 µM) | relative viability ([1]; first compound 8 µM) | relative viability (Darinaparsin + OSI-027; first compound 2.53 µM) |
| --- | --- | --- | --- | --- | --- | --- | --- | --- | --- | --- | --- | --- | --- |
| 201T | 0.937 | 0.995 | 0.797 | 0.866 | 0.668 | 0.963 | 0.701 | 0.93 | 1.09 | 1.02 | 1 | 1.09 | – |
| A549 | – | – | – | – | – | – | – | – | 1.33 | 0.891 | 0.605 | 0.985 | – |
| A-427 | 0.902 | 0.844 | – | 0.877 | 0.844 | 0.424 | 0.445 | 0.582 | 1.01 | 0.902 | 0.777 | 1.1 | 0.466 |
| ABC-1 | 0.886 | 0.834 | 1.02 | 0.931 | 1.11 | 0.489 | 0.424 | 0.444 | 1.21 | 1.16 | 0.875 | 1.29 | 0.453 |
| BEN | 0.568 | 0.528 | 0.528 | 0.688 | 0.647 | 0.312 | 0.306 | 0.299 | 0.956 | 1.01 | 0.741 | 1.17 | 0.281 |
| CAL-12T | 0.867 | 0.915 | 0.713 | 0.983 | 0.704 | 0.756 | 0.539 | 0.569 | 0.902 | 0.752 | 0.391 | 0.707 | 0.737 |
| COR-L23 | 0.397 | 0.334 | 0.469 | 0.301 | 0.282 | 0.975 | 0.645 | 0.838 | 0.818 | 0.648 | 0.601 | 0.661 | 0.785 |
| COR-L 105 | 0.838 | 1.03 | 0.665 | 0.794 | 0.716 | 0.625 | 0.704 | 0.559 | 0.745 | 0.687 | – | 0.866 | 0.486 |
| Calu-6 | – | – | – | – | – | – | – | – | 1.17 | 0.857 | 0.665 | 0.751 | – |
| ChaGo-K-1 | – | 0.799 | 0.935 | 0.767 | 0.745 | 0.612 | 0.518 | 0.715 | 1.38 | 1.14 | 0.924 | 1.1 | 0.516 |
| EBC-1 | – | – | – | – | – | – | – | – | 0.196 | 0.19 | 0.181 | 0.166 | – |
| EKVX | 0.642 | 0.625 | 0.592 | 0.567 | 0.545 | 0.723 | 0.604 | 0.833 | 1.22 | 0.935 | 0.813 | 1.23 | 0.752 |
| EMC-BAC-2 | 0.492 | 0.434 | 0.385 | 0.334 | 0.325 | 0.364 | 0.315 | 0.409 | 0.812 | 0.772 | 0.676 | 0.801 | 0.405 |
| EPLC-272H | 0.371 | 0.55 | 0.442 | 0.479 | 0.276 | – | 0.285 | 0.321 | 1.02 | 0.529 | 0.649 | 0.89 | 0.243 |
| H3255 | 0.763 | 0.947 | – | 0.758 | 0.861 | 0.607 | 0.543 | 0.547 | 1.14 | 0.773 | 0.789 | 0.895 | 0.618 |
| HARA | 0.498 | 0.565 | – | 0.506 | 0.431 | 0.68 | 0.502 | 0.572 | 1.46 | 1.05 | 0.783 | 1.27 | 0.54 |
| HCC-15 | 0.861 | 0.944 | 0.651 | 0.84 | 0.648 | 0.737 | 0.59 | 0.707 | 0.931 | 0.743 | 0.784 | 1.06 | 0.694 |
| HCC-44 | 1.14 | 1.05 | 0.557 | 0.98 | 1.01 | 0.511 | 0.514 | 0.378 | 0.875 | 0.872 | 0.618 | 0.929 | 0.454 |
| HCC-78 | 0.4 | 0.48 | 0.518 | 0.46 | 0.444 | 0.375 | 0.394 | 0.372 | 0.36 | 0.316 | 0.332 | 0.348 | 0.379 |
| HCC-366 | 0.353 | 0.283 | – | 0.152 | 0.161 | 1.23 | 1.1 | 1.62 | 1.26 | 0.523 | 0.265 | 0.828 | 0.955 |
| HCC-827 | 0.749 | 0.927 | 0.672 | 0.944 | 0.899 | 0.705 | 0.837 | 0.766 | 0.959 | 0.853 | 0.979 | 0.965 | 0.626 |
| HOP-62 | 0.556 | 0.564 | 0.533 | 0.416 | 0.447 | 0.958 | 0.852 | 0.855 | 1.02 | 1.05 | 1.05 | 1.06 | 0.694 |
| IA-LM | 0.926 | 1.13 | 0.674 | 0.806 | 0.88 | – | – | – | 1.06 | 0.645 | 0.788 | 0.923 | – |
| LC-2-ad | 0.748 | 0.739 | 0.531 | 0.671 | 0.74 | 0.877 | 0.762 | 0.759 | 0.524 | 0.459 | 0.447 | 0.383 | 0.67 |
| LCLC-103H | 0.724 | 0.783 | – | 0.799 | 0.734 | 0.481 | 0.465 | 0.531 | 1.12 | 1.04 | 0.979 | 1.03 | 0.414 |
| LK-2 | 0.282 | 0.27 | 0.467 | 0.323 | 0.28 | 0.188 | 0.19 | 0.199 | 0.208 | – | 0.208 | 0.196 | 0.181 |
| LOU-NH91 | 0.896 | 0.858 | 0.871 | 0.936 | 0.916 | 0.74 | 0.689 | 0.79 | 0.779 | 0.759 | 0.75 | 0.737 | 0.711 |
| LU99A | 0.432 | 0.438 | 0.51 | 0.515 | 0.464 | 0.311 | 0.298 | 0.271 | 0.626 | 0.574 | 0.461 | 0.593 | 0.337 |
